# In US5885824A, “Recombinant genomic clone encoding the histamine H2 receptor, methods for production thereof, and protein produced therefrom” (The Regents of the University of Michigan, priority 1993, dated 1999):
# Entries after “also recorded” stand apart in the source; their conditions may differ.
# How the values were obtained:
# [1] = target: T1, canine histamine H2 receptor (Canis lupus familiaris, UniProt P17124); assay: inhibition of [methyl-3H]-tiotidine binding to transformed L-cells; conditions: for inhibition of [methyl-3H]-tiotidine binding (in words): percent of maximal specific binding
# T1 construct: cloning of the entire gene encoding a histamine H2 receptor using cDNA derived from mRNA isolated from a canine gastric cell source; expressed in transfected cells; host or cells: mouse L-cells, permanently transfected (CMVneo vector, G418 selection)
# T1 sequence (P17124 whole entry): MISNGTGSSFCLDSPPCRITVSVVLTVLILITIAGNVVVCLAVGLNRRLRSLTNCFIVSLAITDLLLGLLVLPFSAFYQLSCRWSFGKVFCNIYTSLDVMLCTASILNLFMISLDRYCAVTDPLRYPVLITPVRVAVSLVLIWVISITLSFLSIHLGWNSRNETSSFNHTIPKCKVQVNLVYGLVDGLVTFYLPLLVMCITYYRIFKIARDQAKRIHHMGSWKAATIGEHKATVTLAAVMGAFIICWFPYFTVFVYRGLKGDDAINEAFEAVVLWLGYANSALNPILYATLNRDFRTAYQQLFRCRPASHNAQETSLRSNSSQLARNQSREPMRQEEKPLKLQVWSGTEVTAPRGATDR
# Procedure: Transformed L-cells were plated and grown to confluence in 2.4×1.7 cm multi-well plates. The culture media was removed and cells were washed twice with Earle's balanced salt solution containing 0.1% bovine serum albumin. An aliquot (36 nCi) of [methyl-^3 H]-tiotidine (87 Ci/mmol; Dupont, Boston Mass.) was added to the culture in the presence of either cimetidine or diphenhydramine and after one hour of incubation, the medium was removed by aspiration. The cells were washed twice with 0.2M phosphate buffered NaCl pH 7.4, lysed with 1% Triton X-100, and the radioactivity was quantified. Maximum binding was determined by incubation of [methyl-^3H]-tiotidine with transformed L-cells in the absence of antagonists and non-specific binding, which was subtracted from total binding to obtain specific binding, was determined as the amount of label remaining bound in the presence of 10^-4 M histamine. The data, presented as percent of maximal specific binding, are from a single experiment and are virtually identical to data obtained in two other experiments.
# [2] = target: T1, canine histamine H2 receptor; assay: cyclic AMP content of L-cells transfected with CMVneo vector containing the canine histamine H2 receptor gene insert; assay type: cell-based; conditions: for effect on cAMP content: doses as high as 10^-4 M, transfected L-cells
Compound,inhibition of [methyl-3H]-tiotidine binding (in words) [1],effect on cAMP content [2],also measured
CN(C)CCOC(c1ccccc1)c1ccccc1 [diphenhydramine],inhibited binding only at the very highest dose; also recorded: no ability to inhibit [methyl-^3 H]-tiotidine except with the highest dose,,
CNC[C@H](O)c1ccc(O)c(O)c1 [epinephrine],,no effect,
NCCc1c[nH]cn1 [histamine],,,"activation at 10 µM ([2]; 1 h, read-out: maximum increase in cellular cyclic AMP content): 217 ± 10%"
NCCc1c[nH]c2ccc(O)cc12 [Serotonin],,no effect,
CN/C(=N/CCSCc1nc[nH]c1C)NC#N [cimetidine],dose-dependently inhibited label binding,,"effect on histamine cAMP dose-response curve ([2]; 60 min pre-incubation with cimetidine (10^-4 M)): shifted to the right; IC50 ([1]; one hour of incubation, mean±se n=4, read-out: ED50 for displacement of [methyl-3H]-tiotidine binding): 550 nM"
NCCc1ccc(O)c(O)c1 [dopamine],,no effect,
